Reference: BindingDB's records for doi:10.1038/sj.bjp.0702059 (Smithkline Beecham Pharmaceuticals, 1998)

Columns and labels:
[1] = target: 5-hydroxytryptamine receptor 1E (Homo sapiens, UniProt P28566)
[2] = target: 5-hydroxytryptamine receptor 4 (Homo sapiens, UniProt Q13639)
[3] = target: 5-hydroxytryptamine receptor 7 (Homo sapiens, UniProt P34969)
[4] = target: T1, 5-hydroxytryptamine receptor 1F (Homo sapiens, UniProt P30939)
T1 sequence (P30939 whole entry): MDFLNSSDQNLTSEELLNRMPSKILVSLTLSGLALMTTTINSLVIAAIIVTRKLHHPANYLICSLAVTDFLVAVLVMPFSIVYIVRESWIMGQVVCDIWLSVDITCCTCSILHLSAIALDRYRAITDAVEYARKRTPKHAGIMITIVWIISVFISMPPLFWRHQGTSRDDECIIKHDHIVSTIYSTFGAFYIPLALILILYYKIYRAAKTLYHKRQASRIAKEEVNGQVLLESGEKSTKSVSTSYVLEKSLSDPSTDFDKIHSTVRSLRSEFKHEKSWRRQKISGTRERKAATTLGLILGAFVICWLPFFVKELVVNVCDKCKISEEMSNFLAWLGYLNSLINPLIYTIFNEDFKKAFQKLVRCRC

[5] = target: 5-hydroxytryptamine receptor 6 (Homo sapiens, UniProt P50406)
[6] = target: 5-hydroxytryptamine receptor 2A (Homo sapiens, UniProt P28223)
[7] = target: 5-hydroxytryptamine receptor 2B (Homo sapiens, UniProt P41595)
[8] = target: 5-hydroxytryptamine receptor 1B (Homo sapiens, UniProt P28222)
Chain of 5-hydroxytryptamine receptor 1B (P28222 whole entry): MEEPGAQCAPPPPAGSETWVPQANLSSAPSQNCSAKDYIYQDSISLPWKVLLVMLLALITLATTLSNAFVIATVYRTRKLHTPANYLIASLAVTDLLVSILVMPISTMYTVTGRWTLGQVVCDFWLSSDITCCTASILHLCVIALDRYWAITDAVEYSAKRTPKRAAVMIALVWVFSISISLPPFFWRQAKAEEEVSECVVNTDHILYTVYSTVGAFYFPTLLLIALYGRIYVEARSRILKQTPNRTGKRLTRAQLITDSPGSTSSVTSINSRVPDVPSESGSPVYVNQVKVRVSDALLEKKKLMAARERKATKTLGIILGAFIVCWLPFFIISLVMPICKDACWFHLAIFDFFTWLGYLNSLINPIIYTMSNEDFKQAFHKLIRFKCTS

Chain of 5-hydroxytryptamine receptor 1E (P28566 whole entry): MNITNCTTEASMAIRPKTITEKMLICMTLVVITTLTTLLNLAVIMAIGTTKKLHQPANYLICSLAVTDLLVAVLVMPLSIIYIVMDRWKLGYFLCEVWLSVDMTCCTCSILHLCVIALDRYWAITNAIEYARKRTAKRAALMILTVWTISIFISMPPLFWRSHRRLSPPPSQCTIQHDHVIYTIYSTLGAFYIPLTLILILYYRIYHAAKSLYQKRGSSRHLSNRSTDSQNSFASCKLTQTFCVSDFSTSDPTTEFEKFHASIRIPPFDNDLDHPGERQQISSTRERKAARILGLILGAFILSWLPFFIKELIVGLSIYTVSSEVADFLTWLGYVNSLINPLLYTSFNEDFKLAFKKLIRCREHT
Chain of 5-hydroxytryptamine receptor 2B (P41595 whole entry): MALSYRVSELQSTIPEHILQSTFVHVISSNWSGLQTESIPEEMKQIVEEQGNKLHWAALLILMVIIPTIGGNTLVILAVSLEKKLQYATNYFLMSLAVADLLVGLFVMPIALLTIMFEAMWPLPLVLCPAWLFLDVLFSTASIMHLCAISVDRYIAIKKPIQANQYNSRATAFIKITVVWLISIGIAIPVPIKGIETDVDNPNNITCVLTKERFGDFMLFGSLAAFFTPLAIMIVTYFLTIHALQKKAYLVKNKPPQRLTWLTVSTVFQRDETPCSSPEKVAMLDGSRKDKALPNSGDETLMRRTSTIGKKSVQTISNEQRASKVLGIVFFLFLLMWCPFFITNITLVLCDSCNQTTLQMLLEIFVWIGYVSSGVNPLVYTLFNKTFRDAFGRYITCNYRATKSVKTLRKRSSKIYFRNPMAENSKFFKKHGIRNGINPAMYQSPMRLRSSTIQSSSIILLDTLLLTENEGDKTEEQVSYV
Chain of 5-hydroxytryptamine receptor 2A (P28223 whole entry): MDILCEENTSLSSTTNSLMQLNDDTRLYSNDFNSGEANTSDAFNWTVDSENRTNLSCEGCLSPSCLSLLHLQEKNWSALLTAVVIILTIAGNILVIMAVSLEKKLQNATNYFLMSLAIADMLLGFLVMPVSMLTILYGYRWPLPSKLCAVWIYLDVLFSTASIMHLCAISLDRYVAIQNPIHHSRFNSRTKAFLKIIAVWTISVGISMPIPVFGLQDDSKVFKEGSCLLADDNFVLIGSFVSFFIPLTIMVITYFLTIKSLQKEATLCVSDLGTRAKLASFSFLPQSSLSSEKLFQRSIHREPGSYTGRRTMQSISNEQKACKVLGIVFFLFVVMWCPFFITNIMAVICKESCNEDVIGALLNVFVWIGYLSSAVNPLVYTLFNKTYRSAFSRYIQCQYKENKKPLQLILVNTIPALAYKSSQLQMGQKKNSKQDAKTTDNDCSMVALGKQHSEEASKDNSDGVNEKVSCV
Chain of 5-hydroxytryptamine receptor 4 (Q13639 whole entry): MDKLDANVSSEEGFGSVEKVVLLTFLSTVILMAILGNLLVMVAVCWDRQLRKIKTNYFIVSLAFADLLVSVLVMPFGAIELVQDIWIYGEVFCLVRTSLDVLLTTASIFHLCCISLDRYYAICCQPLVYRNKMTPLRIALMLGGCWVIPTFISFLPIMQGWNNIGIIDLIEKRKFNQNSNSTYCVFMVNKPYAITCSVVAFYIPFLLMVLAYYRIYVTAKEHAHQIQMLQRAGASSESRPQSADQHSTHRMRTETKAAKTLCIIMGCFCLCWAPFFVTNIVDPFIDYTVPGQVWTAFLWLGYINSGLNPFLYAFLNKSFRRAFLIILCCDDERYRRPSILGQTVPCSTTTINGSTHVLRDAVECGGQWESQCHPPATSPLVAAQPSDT
Chain of 5-hydroxytryptamine receptor 6 (P50406 whole entry): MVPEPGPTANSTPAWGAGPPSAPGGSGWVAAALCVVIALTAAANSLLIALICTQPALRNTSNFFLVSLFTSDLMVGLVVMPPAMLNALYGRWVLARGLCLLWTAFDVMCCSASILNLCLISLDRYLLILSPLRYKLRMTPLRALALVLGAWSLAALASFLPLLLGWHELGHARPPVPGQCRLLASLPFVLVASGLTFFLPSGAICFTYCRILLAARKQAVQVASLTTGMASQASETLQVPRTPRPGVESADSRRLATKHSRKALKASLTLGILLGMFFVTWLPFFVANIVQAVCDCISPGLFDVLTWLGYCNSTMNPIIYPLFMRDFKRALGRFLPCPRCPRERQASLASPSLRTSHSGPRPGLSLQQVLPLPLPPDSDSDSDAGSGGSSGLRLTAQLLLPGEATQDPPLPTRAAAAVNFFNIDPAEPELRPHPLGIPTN
Chain of 5-hydroxytryptamine receptor 7 (P34969 whole entry): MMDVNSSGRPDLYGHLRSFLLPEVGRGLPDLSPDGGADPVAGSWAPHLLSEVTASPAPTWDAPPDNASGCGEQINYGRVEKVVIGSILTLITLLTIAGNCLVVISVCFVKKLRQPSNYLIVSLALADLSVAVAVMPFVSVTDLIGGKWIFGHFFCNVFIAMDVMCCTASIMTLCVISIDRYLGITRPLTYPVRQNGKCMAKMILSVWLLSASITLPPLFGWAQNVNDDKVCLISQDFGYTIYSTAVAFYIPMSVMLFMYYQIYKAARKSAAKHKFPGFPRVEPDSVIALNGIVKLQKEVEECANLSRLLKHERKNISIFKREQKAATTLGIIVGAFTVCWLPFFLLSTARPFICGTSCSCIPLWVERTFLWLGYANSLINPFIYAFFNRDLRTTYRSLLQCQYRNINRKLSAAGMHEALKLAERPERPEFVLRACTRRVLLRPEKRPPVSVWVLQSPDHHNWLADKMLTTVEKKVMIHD

| Ki [8] [µM] | Compound | Ki [1] [µM] | Ki [2] [µM] | Ki [3] [µM] | Ki [4] [µM] | Ki [5] [µM] | Ki [6] [µM] | Ki [7] [µM] |
| --- | --- | --- | --- | --- | --- | --- | --- | --- |
| – | Cc1nc(-c2ccc(-c3ccc(C(=O)N4CCc5cc6c(cc54)C4(CCN(C)CC4)CO6)cc3)c(C)c2)no1 [4-[2-methyl-4-(5-methyl-1,2,4-oxadiazol-3-yl)phenyl]phenyl-1'-methylspiro[3,5,6,7-tetrahydro-2H-furo[2,3-f]indole-3,4'-(hexahydropyridine)]-5-ylmethanone] | > 10 | 2.04 | 1 | > 10 | 2.14 | 1.2 | 3.16 |
| 0.00093 | COc1ccc(NC(=O)c2ccc(-c3ccc(-c4noc(C)n4)cc3C)cc2)cc1N1CCN(C)CC1 [SMR001230745] | – | – | – | – | – | – | – |
